Calls of active or inactive are those of the source.
Key:
[1] = cytotoxicity toward NIH3T3 fibroblasts, dose response, counter-screen, cell-based, ATP luminescence, mouse fibroblasts (AID 2010); assay type: functional;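 also: cells exposed to compound for about 90 hours before reading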
[2] = inhibitors of intracellular T. cruzi replication, confirmation, NIH3T3 host cells, beta-gal luminescence (AID 2044); assay type: functional, cell-based;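 also: intracellular parasites grown in NIH/3T3 mouse fibroblasts as host cells; luminescent beta-galactosidase reporter signal from transgenic T. cruzi replicating inside host cells; inhibitors lower the luminescence signal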
[3] = system: INS1; assay: beta cell apoptosis inhibitors, cytokine rescue, dose response, luminescence, retest (AID 449756); assay type: functional, cell-based; settings: Rattus norvegicus;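 also: cell death triggered by IL-1 beta plus TNF-alpha plus IFN-gamma mixture; protective hits raise ATP signal compared with cytokine alone wells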
[4] = molecular target: T1, Cytochrome P450 1A2 (Homo sapiens, UniProt P05177);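 also: PubChem cytochrome P450 panel assay, CYP1A2 panel member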
T1 sequence (P05177 whole entry): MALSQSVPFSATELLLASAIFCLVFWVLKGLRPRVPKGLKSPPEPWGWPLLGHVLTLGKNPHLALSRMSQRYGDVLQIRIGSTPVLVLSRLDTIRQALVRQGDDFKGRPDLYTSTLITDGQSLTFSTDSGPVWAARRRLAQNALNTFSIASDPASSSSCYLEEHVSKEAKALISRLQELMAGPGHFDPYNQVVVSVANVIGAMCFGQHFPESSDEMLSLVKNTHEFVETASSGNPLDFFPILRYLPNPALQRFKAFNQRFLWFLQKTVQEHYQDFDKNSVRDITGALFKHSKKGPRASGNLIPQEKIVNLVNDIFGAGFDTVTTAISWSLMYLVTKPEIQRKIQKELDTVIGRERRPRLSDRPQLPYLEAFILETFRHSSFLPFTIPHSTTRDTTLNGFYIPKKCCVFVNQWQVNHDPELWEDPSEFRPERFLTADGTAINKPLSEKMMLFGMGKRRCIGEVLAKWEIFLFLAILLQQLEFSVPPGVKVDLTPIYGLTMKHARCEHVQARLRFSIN

[5] = molecular target: Cytochrome P450 2C19 (Homo sapiens, UniProt P33261); assay: Cytochrome panel assay with activity outcomes. Panel member name: p450-cyp2c19 Compounds with AC50 equal or less than 10 uM are considered active; assay type: functional
Cytochrome P450 2C19, sequence (P33261 whole entry): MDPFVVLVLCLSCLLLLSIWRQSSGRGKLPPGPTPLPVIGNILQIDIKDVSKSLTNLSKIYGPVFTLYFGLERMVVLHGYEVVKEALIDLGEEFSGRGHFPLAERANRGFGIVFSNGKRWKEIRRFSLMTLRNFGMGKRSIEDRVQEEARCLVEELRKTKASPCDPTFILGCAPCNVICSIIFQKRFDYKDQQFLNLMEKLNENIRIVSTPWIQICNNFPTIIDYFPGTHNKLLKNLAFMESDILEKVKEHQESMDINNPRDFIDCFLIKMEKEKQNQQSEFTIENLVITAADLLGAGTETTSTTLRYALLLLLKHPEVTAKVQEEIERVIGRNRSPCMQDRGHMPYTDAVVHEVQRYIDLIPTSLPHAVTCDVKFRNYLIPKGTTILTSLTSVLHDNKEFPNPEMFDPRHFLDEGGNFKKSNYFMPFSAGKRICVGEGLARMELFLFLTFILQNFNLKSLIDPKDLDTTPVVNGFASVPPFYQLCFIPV

[6] = molecular target: T2, Protein RecA (Mycobacterium tuberculosis, UniProt P9WHJ3); assay: Fluorescence Cell-Free Homogeneous Dose Retest to Identify Inhibitors of RecA-Intein Splicing Activity. [Related pubchem assays (depositor defined):AID2097, AID2223, AID489010, AID492950]; assay type: functional
T2 sequence (P9WHJ3 whole entry): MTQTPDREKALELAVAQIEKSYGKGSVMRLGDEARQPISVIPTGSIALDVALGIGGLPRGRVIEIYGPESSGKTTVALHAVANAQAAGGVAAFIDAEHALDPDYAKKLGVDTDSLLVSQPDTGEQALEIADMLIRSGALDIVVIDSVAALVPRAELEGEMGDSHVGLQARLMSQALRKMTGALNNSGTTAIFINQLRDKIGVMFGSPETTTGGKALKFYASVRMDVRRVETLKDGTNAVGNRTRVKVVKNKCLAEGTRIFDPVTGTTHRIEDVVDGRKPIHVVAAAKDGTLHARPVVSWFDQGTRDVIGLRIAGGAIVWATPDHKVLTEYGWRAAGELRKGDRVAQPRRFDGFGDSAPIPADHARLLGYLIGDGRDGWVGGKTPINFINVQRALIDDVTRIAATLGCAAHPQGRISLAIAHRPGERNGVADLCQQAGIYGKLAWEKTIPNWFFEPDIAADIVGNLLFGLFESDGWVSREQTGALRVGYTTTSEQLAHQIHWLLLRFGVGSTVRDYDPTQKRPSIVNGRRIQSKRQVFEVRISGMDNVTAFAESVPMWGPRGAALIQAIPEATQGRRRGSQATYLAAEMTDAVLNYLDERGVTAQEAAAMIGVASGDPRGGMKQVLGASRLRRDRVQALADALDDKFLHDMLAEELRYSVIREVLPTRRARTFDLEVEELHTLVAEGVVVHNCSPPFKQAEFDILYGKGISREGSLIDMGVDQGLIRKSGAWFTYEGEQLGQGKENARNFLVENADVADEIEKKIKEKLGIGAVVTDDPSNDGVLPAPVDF

[7] = molecular target: T3, Replicative DNA helicase DnaB (Mycobacterium tuberculosis, UniProt P9WMR3); assay: DnaB intein splicing inhibitors, dose response, biochemical, cell-free fluorescence (AID 449749); assay type: functional
T3 sequence (P9WMR3 whole entry): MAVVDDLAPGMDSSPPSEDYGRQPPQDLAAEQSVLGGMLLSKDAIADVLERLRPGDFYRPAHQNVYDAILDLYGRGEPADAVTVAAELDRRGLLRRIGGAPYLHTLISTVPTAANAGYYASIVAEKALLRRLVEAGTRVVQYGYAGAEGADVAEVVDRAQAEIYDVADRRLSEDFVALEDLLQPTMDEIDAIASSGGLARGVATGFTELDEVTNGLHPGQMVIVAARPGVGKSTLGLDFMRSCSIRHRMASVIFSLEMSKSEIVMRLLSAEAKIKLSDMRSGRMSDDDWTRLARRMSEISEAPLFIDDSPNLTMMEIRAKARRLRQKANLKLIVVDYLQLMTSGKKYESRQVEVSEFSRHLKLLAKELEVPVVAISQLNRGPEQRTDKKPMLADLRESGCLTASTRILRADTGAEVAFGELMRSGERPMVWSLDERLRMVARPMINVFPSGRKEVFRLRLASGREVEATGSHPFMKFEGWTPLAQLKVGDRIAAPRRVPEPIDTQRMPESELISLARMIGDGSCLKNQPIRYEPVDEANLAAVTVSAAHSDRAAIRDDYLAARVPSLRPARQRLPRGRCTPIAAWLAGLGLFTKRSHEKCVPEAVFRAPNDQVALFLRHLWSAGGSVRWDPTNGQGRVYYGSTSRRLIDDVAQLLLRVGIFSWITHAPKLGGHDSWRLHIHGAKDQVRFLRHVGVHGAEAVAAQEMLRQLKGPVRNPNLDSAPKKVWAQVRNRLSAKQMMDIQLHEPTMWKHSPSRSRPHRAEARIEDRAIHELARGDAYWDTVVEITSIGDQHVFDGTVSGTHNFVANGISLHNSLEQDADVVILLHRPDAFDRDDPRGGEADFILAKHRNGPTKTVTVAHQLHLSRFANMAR

[8] = system: Streptococcus sp. 'group A'; assay: growth inhibition of control SK(-) GAS strain, dose response, counter-screen for streptokinase expression inhibitor project, luminescence, kanamycin, BacTiterGlo, confirmation (AID 1900); assay type: functional, organism-based
[9] = system: Streptococcus; assay: Group A Streptococcus viability loss, dose response, counter-screen for streptokinase expression inhibitor project, luminescence, BacTiterGlo (AID 1915); assay type: functional, organism-based;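 also: potency for reduction of bacterial viability or growth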

CCOC(=O)Nc1ccc2c(c1)N(C(=O)CCN(C)C)c1ccccc1S2
EC50 [1]: > 60 µM (not active) | EC50 [2]: 1.8 µM (active)

CCCC(=O)N(CCN(C(=O)CCC)c1ccccc1)c1ccccc1
AC50 [3]: 183 µM (active)

O=C(Nc1nc(-c2ccccc2)c(-c2ccccc2)s1)c1ccc(S(=O)(=O)N(CCCl)CCCl)cc1
EC50 [1]: > 30 µM (not active) | EC50 [2]: 1.25 µM (active)

CCNC(=O)c1ccc(-n2nc(C)cc2-c2ccccc2)cc1
AC50 [4]: 14.1 µM (inconclusive)

O=C(OCC1CC(c2ccccc2)=NO1)c1ccc(Cl)cc1 (stereo not given)
AC50 ([5]; read-out: AC50): 7.08 µM (inconclusive) | AC50 [4]: 2.82 µM (inconclusive)

CC(C)CN1CCCC(N2CCN(c3cccc(Cl)c3)CC2)C1 (stereo not given)
EC50 [1]: > 60 µM (not active) | EC50 [2]: 3.19 µM (active)

CC(C)(C)Nc1nc(Cl)nc(N(C#N)CN2C(=O)c3ccccc3S2(=O)=O)n1
EC50 [6]: 18.4 µM (active) | AC50 [7]: 15.5 µM (active)

O=[N+]([O-])c1c(NCc2ccco2)ccc2nonc12
EC50 [6]: 10.1 µM (active) | AC50 [7]: 8.52 µM (active)

CC(C)(C)c1cnnn1-c1ccc(/C=N/Nc2ccc([N+](=O)[O-])cc2)cc1
AC50 [3]: 4.33 µM (active)

Cc1cc(C)c(C#N)c(Oc2ccc(F)cc2)n1
AC50 ([5]; read-out: AC50): 39.8 µM (inconclusive)

C[C@@](N)(C(=O)O)c1ccc(P(=O)(O)O)cc1
AC50 [4]: 39.8 µM (inconclusive)

CN1CCC(N(C)S(=O)(=O)c2ccc(NC(=O)COc3cccc(Cl)c3)cc2)CC1
EC50 [1]: > 30 µM (not active) | EC50 [2]: 0.268 µM (active)

Cc1cc(C(=O)NNC(=S)NC(C)c2ccccc2)c2ccccc2n1 (stereo not given)
AC50 ([5]; read-out: AC50): 22.4 µM (inconclusive) | AC50 [4]: 31.6 µM (inconclusive)

CC(C)=NO[C@@H](C)c1cn([C@@H]2COC[C@@H]2O)nn1
AC50 [5]: inconclusive

Fc1ccc(N/N=C/c2ccc(N3CCOCC3)cc2)c(F)c1
EC50 [1]: > 30 µM (not active) | EC50 [2]: 0.406 µM (active)

COCCn1c(C(=O)N2CCCC2)cc2c1C[C@H]1CN(C(=O)c3ccccc3)[C@@](Cc3ccc(F)cc3)(C(=O)OC)[C@@H]21
AC50 ([5]; read-out: AC50): 25.1 µM (inconclusive) | AC50 [4]: 31.6 µM (inconclusive)

O=C(c1cccc(C(F)(F)F)c1)C1CCCN(Cc2ncc[nH]2)C1 (stereo not given)
EC50 [6]: > 380 µM (inactive) | AC50 [7]: > 380 µM (inactive)

COc1ccc(NC(=O)N2CCCC3(CCNCC3)C2)cc1
AC50 [5]: inconclusive

Cn1cc(CN2CCCC(CO)(Cc3ccccc3)C2)c2ccccc21 (stereo not given)
EC50 [1]: > 60 µM (not active) | EC50 [2]: 0.62 µM (active)

O=C(c1c[nH]c(C(=O)C(Cl)(Cl)Cl)c1)c1ccc(F)cc1Cl
EC50 [6]: 4.49 µM (active) | AC50 [7]: 13 µM (active)

N=C(N)SCCCN
AC50 [5]: inconclusive | AC50 [4]: 6.31 µM (inconclusive)

CC1(C)CCC(C)(C)c2c1ccc(O)c2Cc1c(O)ccc2c1C(C)(C)CCC2(C)C
AC50 [4]: 5.01 µM (inconclusive)

Cc1ccc(C2C(C#N)=C(N)Oc3n[nH]c(-c4cccs4)c32)cc1 (stereo not given)
EC50 [6]: 1.12 µM (active) | AC50 [7]: 4.21 µM (active)

N#Cc1cnn(-c2nc(SCc3ccccc3)nc3sc4c(c23)CCCC4)c1N
EC50 [1]: > 60 µM (not active) | EC50 [2]: 2.24 µM (active)

CCOc1ccc(N(C(C)C(=O)N/N=C(\C)c2cccc(NC(=O)c3ccccc3)c2)S(C)(=O)=O)cc1 (stereo not given)
AC50 [4]: 14.1 µM (inconclusive)

Cc1cc(C(F)(F)F)c2c(n1)sc1c(O)cc(O)nc12
EC50 [8]: 27.8 µM (active) | EC50 [9]: > 150 µM (not active)

CN1CCN(c2ccc([N+](=O)[O-])c3[nH]o[n+](=O)c23)CC1
AC50 [4]: 0.398 µM (inconclusive)

CS(=O)(=O)Nc1cccc(-c2ccc3ncnc(NC4CCNCC4)c3c2)c1
AC50 [4]: 31.6 µM (inconclusive)

O=C(c1ccc([N+](=O)[O-])s1)N1CCc2ccccc2C1
EC50 [1]: > 60 µM (not active) | EC50 [2]: 0.476 µM (active)

COc1ccccc1NC(=O)CCN1C(=O)C2CC=C(Cl)CC2C1=O (stereo not given)
AC50 ([5]; read-out: AC50): 7.94 µM (inconclusive)

COCc1c(Br)c(C)nc(OCC(=O)N/N=C/c2cc(C)n(-c3ccc([N+](=O)[O-])cc3)c2C)c1C#N
EC50 [1]: > 60 µM (not active) | EC50 [2]: 1.95 µM (active)

CCCCCCSc1ccc(-c2nc3ccc(C)cn3c2NCc2ccccc2)cc1OC
EC50 [1]: 8.59 µM (active) | EC50 [2]: 0.701 µM (active)

Cc1ccc(C(=O)n2cnc3ccccc32)cc1C
EC50 [6]: 124 µM (active) | AC50 [7]: 37.7 µM (active)

CCCC(=O)NNC(=O)Nc1ccccc1
AC50 ([5]; read-out: AC50): 28.2 µM (inconclusive)

O=[N+]([O-])c1ccc2c(OCc3nnc(-c4ccccc4Br)o3)ncnc2c1
EC50 [1]: 10.4 µM (active) | EC50 [2]: 0.213 µM (active)

CCN(CC)CCNc1c2c(c(C#N)c3nc4ccccc4n13)CCCC2
EC50 [1]: > 60 µM (not active) | EC50 [2]: 0.226 µM (active)

CC1CC(=O)c2cnc(N)nc2C1 (stereo not given)
AC50 [5]: inconclusive

COc1ccc(/C=C2\CCCc3c2nc2ccccc2c3C(=O)OCC(=O)c2c(N)n(C)c(=O)n(C)c2=O)cc1
EC50 [1]: > 60 µM (not active) | EC50 [2]: 1.05 µM (active)

NC(=S)N/N=C/c1ccc(-c2cc(Cl)c(Cl)cc2Cl)o1
EC50 [1]: > 60 µM (inconclusive) | EC50 [2]: 0.122 µM (active)

Cc1cc[n+](CC(=O)Nc2cc(C(F)(F)F)ccc2Cl)cc1
AC50 ([5]; read-out: AC50): 3.98 µM (inconclusive) | AC50 [4]: 15.8 µM (inconclusive)

O=[N+]([O-])c1ccc2ncccc2c1CCc1c([N+](=O)[O-])ccc2ncccc12
AC50 [4]: 3.16 µM (inconclusive)

Cc1nc2ncnn2c(O)c1NC(=O)CC12CC3CC(CC(C3)C1)C2
AC50 ([5]; read-out: AC50): 44.7 µM (inconclusive)

Cc1ccc(C)c(/N=C2\C(Cl)=C(O)OC2OC(=O)c2ccco2)c1 (stereo not given)
EC50 [6]: 9.37 µM (active) | AC50 [7]: 20 µM (active)

O=C1c2ccccc2C(=O)N1CCSC(=S)N1CCOCC1
AC50 [4]: 3.16 µM (inconclusive)

COC(=O)[C@@]1(Cc2ccccc2)[C@@H]2C(=CC(=O)[C@H]2CC(=O)C(=O)N(C)C)CN1C(=O)c1ccccc1
EC50 [6]: 5.12 µM (active) | AC50 [7]: < 0.018 µM (active)

CC(C)CCN1CCN(C2CCN(c3ccc4c(c3)OCO4)CC2)CC1CCO (stereo not given)
EC50 [1]: > 60 µM (not active) | EC50 [2]: 1.56 µM (active)

Source: ChEMBL document CHEMBL1201862, “PubChem BioAssay data set” (2004)
